Assay: Compound was evaluated for K+ ion binding affinity to macrocycle of macrotetrolides

In order of rising Log K:
1. C[C@@H]1C[C@H]2CC[C@H](O2)[C@H](C)C(=O)O[C@@H](C)C[C@@H]2CC[C@@H](O2)[C@@H](C)C(=O)O[C@H](C)C[C@H]2CC[C@@H](O2)[C@H](C)C(=O)O[C@@H](C)C[C@@H]2CC[C@@H](O2)[C@@H](C)C(=O)O1  3.88
2. CC[C@H]1C[C@@H]2CC[C@@H](O2)[C@@H](C)C(=O)O[C@H](C)C[C@H]2CC[C@H](O2)[C@H](C)C(=O)O[C@@H](C)C[C@@H]2CC[C@@H](O2)[C@@H](C)C(=O)O[C@H](C)C[C@H]2CC[C@H](O2)[C@H](C)C(=O)O1  4.4
3. CC[C@H]1C[C@@H]2CC[C@@H](O2)[C@@H](C)C(=O)O[C@H](C)C[C@H]2CC[C@H](O2)[C@H](C)C(=O)O[C@@H](CC)C[C@@H]2CC[C@@H](O2)[C@@H](C)C(=O)O[C@H](C)C[C@H]2CC[C@H](O2)[C@H](C)C(=O)O1  4.73
